From ChEMBL document CHEMBL1201862, “PubChem BioAssay data set” (2004)
Calls of active or inactive are those of the source.

Columns and labels:
[1] = molecular target: Glyceraldehyde-3-phosphate dehydrogenase (Homo sapiens, UniProt P04406)
[2] = molecular target: T1, Alkaline phosphatase, tissue-nonspecific isozyme (Homo sapiens, UniProt P05186); test: potency against alkaline phosphatase TNAP – biochemical, luminescent, dose response, SAR follow-up (AID 1056)
T1 sequence (P05186 whole entry): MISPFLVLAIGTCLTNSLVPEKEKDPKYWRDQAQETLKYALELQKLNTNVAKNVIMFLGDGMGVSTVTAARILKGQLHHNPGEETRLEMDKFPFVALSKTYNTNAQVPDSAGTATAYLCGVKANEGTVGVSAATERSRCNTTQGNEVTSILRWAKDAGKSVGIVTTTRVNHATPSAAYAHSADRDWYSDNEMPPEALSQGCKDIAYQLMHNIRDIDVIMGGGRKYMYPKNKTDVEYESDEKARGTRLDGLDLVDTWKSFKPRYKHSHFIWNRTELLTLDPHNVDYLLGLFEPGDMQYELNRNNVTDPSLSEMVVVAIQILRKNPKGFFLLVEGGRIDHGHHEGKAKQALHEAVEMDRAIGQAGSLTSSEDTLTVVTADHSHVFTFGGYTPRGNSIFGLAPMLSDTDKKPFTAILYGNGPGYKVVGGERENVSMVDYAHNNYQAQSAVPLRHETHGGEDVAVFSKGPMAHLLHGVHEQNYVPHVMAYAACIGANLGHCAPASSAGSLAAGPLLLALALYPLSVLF

[3] = molecular target: T2, Ubiquitin-conjugating enzyme E2 N (Homo sapiens, UniProt P61088); type: functional;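 further: Dose-response confirmation in a TR-FRET assay detecting UBC13-driven polyubiquitin chain formation, inhibition measured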
T2 sequence (P61088 whole entry): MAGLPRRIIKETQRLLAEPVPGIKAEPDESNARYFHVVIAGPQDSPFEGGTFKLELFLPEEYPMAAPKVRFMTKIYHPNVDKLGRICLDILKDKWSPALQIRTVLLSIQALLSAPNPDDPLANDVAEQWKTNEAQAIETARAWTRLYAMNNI

BJ [4] = test: growth inhibition of engineered Ras-driven BJ cells – cell-based, alamar blue fluorescence, cherrypicked samples, dose response (AID 2631); type: functional; conditions: Homo sapiens;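 further: confirmatory dose-response assay in RAS-dependent BJ fibroblasts engineered with TERT, LT and ST, with cytotoxicity read by fluorescence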
BJ [5] = test: cells; type: functional, cell-based; conditions: Homo sapiens
BJ [6] = test: BJ-TERT-LT-ST fibroblast viability loss – cell-based, RAS-independent, luminescence, dose response (AID 1935); type: functional; conditions: Homo sapiens;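 further: BJ fibroblasts immortalized with TERT plus LT and ST oncogenes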
[7] = DRD fibroblast viability loss – cell-based, non-viral oncogenic, luminescence, dose response (AID 1934); type: functional; conditions: Homo sapiens
BJ [8] = test: BJ-TERT fibroblast viability loss – cell-based, RAS-independent, luminescence, dose response (AID 1933); type: functional; conditions: Homo sapiens
[9] = HEK-293T viability loss after treatment – luminescence, T-cell screen hits, cytotoxicity control for TCR NF-kB inhibitor project, dose response (AID 489026); type: functional, cell-based;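 further: cells exposed to compound about 14 hours before the viability readout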
Escherichia coli = test: microbe, parasite or virus in culture
HEK293 [10] = test: NOD2 signaling inhibitors in MDP-stimulated cells, cell-based, uHTS, luminescence (AID 2001); type: functional; conditions: Homo sapiens
HEK293 [11] = test: cells; type: functional, cell-based; conditions: Homo sapiens
HEK293 [12] = test: inhibition of NOD1-driven NF-kB reporter – cell-based, luminescence, uHTS, primary screen (AID 1578); type: functional; conditions: Homo sapiens
HEK293 [13] = test: cells; type: functional, cell-based; conditions: Homo sapiens; remark: listed apart in the source
[14] = luciferase reporter signal suppression in cells – H4 neuroglioma cells, luminescence, dose response (AID 1990); type: functional, cell-based
Nonstructural protein 1 = Nonstructural protein 1 (Influenza A virus, UniProt Q194T2); type: functional, Influenza A virus (A/California/07/2009(H1N1))
[15] = alpha-synuclein stem-loop luciferase translation blockers – H4 neuroglioma cells, luminescence, confirmation (AID 1988); type: functional, cell-based
[16] = microbe, parasite or virus in culture; type: functional; conditions: Mycobacterium tuberculosis
[17] = Luminescence Cell-Based Dose Response HTS to Identify Inhibitors of 5'UTR Stem-Loop Driven Prion Protein mRNA Translation in H4 Neuroglioblastoma Cells. [Related pubchem assays: 1827 (Project Summary), 1813 (Primary HTS)]; type: functional
Coagulation factor XII = molecular target: T3, Coagulation factor XII (Homo sapiens, UniProt P00748); type: functional;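 further: activated factor XIIa alpha cleaving a fluorogenic AMC peptide substrate; inhibitor potency from loss of enzyme activity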
T3 sequence (P00748 whole entry): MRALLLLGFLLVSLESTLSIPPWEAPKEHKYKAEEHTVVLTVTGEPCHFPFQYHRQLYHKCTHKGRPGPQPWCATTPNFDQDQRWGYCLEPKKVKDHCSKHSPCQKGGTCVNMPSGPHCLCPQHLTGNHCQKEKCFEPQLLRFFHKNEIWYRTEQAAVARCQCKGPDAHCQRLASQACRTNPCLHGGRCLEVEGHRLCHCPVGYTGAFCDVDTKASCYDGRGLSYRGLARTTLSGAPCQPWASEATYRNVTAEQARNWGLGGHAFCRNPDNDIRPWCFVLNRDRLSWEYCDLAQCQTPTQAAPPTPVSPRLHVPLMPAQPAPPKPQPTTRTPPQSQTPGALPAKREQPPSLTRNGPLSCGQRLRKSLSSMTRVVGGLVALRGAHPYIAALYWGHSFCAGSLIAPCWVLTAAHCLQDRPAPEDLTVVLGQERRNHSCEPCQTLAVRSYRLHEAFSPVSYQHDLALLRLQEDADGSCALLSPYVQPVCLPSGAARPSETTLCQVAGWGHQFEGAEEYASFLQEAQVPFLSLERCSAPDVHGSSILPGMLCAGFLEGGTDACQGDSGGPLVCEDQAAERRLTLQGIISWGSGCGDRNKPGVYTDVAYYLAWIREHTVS

[18] = molecular target: T4, High affinity choline transporter 1 (Homo sapiens, UniProt Q9GZV3); test: human choline transporter blockers, potency – cell-based, 5-point CRC, membrane potential dye, dose response (AID 504840); type: functional
T4 sequence (Q9GZV3 whole entry): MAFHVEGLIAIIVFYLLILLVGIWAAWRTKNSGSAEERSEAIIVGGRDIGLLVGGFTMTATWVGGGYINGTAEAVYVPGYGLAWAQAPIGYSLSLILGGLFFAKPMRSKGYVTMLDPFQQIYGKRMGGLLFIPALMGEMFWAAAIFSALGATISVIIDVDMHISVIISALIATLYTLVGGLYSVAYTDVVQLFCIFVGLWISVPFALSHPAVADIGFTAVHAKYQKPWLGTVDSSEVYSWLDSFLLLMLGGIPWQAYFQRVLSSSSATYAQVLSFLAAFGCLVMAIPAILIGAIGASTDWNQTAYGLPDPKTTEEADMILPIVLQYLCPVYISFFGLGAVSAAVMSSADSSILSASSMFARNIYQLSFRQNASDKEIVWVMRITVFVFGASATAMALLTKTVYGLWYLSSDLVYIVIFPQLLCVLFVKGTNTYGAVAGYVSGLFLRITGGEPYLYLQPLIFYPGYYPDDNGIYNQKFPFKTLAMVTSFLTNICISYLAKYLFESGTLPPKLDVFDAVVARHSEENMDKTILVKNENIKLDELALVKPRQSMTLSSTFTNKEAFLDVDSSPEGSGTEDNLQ

Leucine aminopeptidase = molecular target: T5, Leucine aminopeptidase (Plasmodium falciparum 3D7, UniProt Q8IL11); test: P. falciparum M17LAP inhibitors, primary screen, biochemical, fluorogenic H-Leu-NHMec substrate, 1536-well (AID 1619); type: functional
T5 sequence (Q8IL11 whole entry): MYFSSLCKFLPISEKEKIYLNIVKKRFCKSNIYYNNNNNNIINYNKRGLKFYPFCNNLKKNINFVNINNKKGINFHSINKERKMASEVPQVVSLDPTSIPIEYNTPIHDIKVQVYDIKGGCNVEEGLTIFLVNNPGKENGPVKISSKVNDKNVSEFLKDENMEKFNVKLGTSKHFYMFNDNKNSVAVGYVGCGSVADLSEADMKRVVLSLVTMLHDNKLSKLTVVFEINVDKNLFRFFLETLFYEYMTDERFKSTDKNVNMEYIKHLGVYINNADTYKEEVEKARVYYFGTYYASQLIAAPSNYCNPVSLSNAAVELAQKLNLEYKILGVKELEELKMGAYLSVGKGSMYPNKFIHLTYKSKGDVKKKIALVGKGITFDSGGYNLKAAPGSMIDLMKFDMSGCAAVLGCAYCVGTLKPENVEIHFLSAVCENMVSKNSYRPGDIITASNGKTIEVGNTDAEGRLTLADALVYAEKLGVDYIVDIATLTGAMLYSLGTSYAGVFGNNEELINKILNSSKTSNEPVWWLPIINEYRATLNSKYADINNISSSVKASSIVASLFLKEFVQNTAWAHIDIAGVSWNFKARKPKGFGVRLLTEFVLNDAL

Sequence of Nonstructural protein 1 (Q194T2 whole entry): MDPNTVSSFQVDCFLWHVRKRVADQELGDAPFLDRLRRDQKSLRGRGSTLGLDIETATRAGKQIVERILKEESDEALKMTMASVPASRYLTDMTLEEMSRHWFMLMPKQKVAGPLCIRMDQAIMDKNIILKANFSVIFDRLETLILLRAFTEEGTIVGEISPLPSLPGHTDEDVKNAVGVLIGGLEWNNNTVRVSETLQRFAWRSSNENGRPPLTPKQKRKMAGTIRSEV
Sequence of Glyceraldehyde-3-phosphate dehydrogenase (P04406 whole entry): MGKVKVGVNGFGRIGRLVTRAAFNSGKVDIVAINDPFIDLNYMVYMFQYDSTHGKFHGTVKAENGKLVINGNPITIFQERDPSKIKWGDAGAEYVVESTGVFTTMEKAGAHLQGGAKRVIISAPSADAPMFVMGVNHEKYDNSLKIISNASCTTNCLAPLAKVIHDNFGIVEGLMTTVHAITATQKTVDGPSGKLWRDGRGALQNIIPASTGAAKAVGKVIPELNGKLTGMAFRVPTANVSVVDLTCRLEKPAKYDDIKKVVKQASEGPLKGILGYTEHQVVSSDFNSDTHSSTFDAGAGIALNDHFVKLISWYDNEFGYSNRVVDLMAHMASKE

Q: Which results are given for CCOC(=O)c1nnc(-c2ccccc2)o1?
A: IC50 [1]: > 100 µM (not active); IC50 [2]: > 100 µM (inactive)

Q: For Cc1ccc2c(c1)C1CN(C)CCC1N2C(=O)CCCN1C(=O)c2cccc3cccc(c23)C1=O (stereo not drawn), which IC50 [3] is on record?
A: The IC50 was > 20 µM (inactive).

Q: With O=C(Nc1ccc([N+](=O)[O-])cc1)Nc1ccon1 as the molecule, how does the EC50 (BJ [4]) read?
A: Its EC50 is < 0.104 µM (active).

Q: And the EC50 (BJ [5])?
A: The EC50 was 12.1 µM (active).

Q: What about the EC50 (BJ [6]) of the same molecule?
A: The EC50 was 4.66 µM (active).

Q: What about the EC50 [7] of the same molecule?
A: The EC50 was 1.21 µM (active).

Q: What about the EC50 (BJ [8]) of the same molecule?
A: Its EC50 is 1.57 µM (active).

Q: And the IC50 [9]?
A: The IC50 was > 80 µM (inactive).

Q: Which AC50 (Escherichia coli) does the source give for CCNC(=O)OCC12CC3CC(CC(C3)C1)C2 here?
A: The AC50 was 33.5 µM (active).

Q: Which IC50 (HEK293 [10]) does the source give for COc1ccc(NC(=O)Nc2nnc(-c3ccncc3)s2)cc1 here?
A: The IC50 was 6.01 µM (active).

Q: What about the IC50 (HEK293 [11]) of the same molecule?
A: The IC50 was > 20 µM (inactive).

Q: And the EC50 (HEK293 [12])?
A: The EC50 was 5.39 µM (active).

Q: What about the IC50 (HEK293 [13]) of the same molecule?
A: Its IC50 is 5.85 µM (active).

Q: With CCn1c2ccc(C)cc2c2nnc(SCCN3CCOCC3)nc21 as the molecule, how does the AC50 (Escherichia coli) read?
A: The AC50 was 89.7 µM (active).

Q: With ClC1=C(Cl)C(Cl)=C(Cl)C1=C/C=C/c1ccccc1 as the molecule, how does the EC50 (BJ [4]) read?
A: Its EC50 is 1.25 µM (active).

Q: And the EC50 [14]?
A: Its EC50 is 3.75 µM (inconclusive).

Q: And the EC50 (BJ [5])?
A: Its EC50 is 2.98 µM (active).

Q: And the IC50 (Nonstructural protein 1)?
A: Its IC50 is 33.6 µM (active).

Q: And the EC50 (BJ [6])?
A: The EC50 was 2.42 µM (inconclusive).

Q: What about the EC50 [15] of the same molecule?
A: Its EC50 is 3.43 µM (active).

Q: What about the EC50 [7] of the same molecule?
A: Its EC50 is 2.45 µM (active).

Q: What about the CC50 [16] of the same molecule?
A: Its CC50 is 7.07 µM (active).

Q: What about the EC50 (BJ [8]) of the same molecule?
A: The EC50 was 2.55 µM (inconclusive).

Q: What about the EC50 [17] of the same molecule?
A: The EC50 was 10.9 µM (active).

Q: Which IC50 (Coagulation factor XII) does the source give for Cc1ccc(NC(=O)NCc2ccc3c(c2)OCO3)cc1 here?
A: The IC50 was > 50 µM (inactive).

Q: Which IC50 [18] does the source give for O=C(O)C1CCN(c2nc(-c3ccccc3)nc3c2oc2ccccc23)CC1 here?
A: Its IC50 is 9.12 µM (active).

Q: And the IC50 (Leucine aminopeptidase)?
A: The IC50 was 30.1 µM (active).
